Experiments:
[1] = tested on: CpGs (DNA methylation); experiment: Illumina 850K array DNA methylation changes following 14 weeks of bezisterim treatment; format: in vivo, human; details: for decrease in DNAm: 14 weeks
Method: In this study, 23 mild cognitive impaired (“MCI”) and Alzheimer's disease (“AD”) subjects were enrolled based on Clinical Dementia Rating (“CDR”) from their Quick Dementia Rating System (“QDRS”) scale. Advanced MRI imaging (ASL, BOLD, MRS, task-based fMRI) was also performed as well as cognition and memory tests were performed (Cog12, MM SE, QDRS, MoCA). Biomarkers of the subjects were also taken (csf p-Tau, A beta, and plasma TNF) and episome analyses were performed. Finally, a biological clock analysis was performed (DNA methylation profiling).
Illumina® 850K array DNA methylation changes following 14 weeks of bezisterim treatment were sorted and the top 400 decreased CpGs (decreases >50%) were explored for correlations with changes in clinical results following treatment. Of these, 366 have CpG gene identifications.

[2] = Phase 3 imaging sub-study vMRI; format: in vivo, human; details: 23 subjects; blinded Phase 3 data, NE3107 and placebo pooled
Method: Subjects were analyzed using imaging sub-studies vMRI on 23 subjects. It was observed that the volume was increased in the hippocampus and amygdala. In addition, it was observed a decreased CGIC was correlated with decreased hippocampi volume and increased MCP-1 was correlated with increased whole cortex. The results are described in FIGS. 14A-14B and Table 6.

[3] = tested on: p-IKK beta, p-ERK, p-P38 and p-JNK (Tau phosphorylation); experiment: in vitro samples: activation of inflammatory kinases and p-Tau; format: cell-based
Source text: Without wishing to be bound by theory, it is believed that 17α-ethynylandrost-5-ene-3β,7β,17β-triol binds to ERK 1 and ERK 2, which decreases inflammatory activation of p-IKK beta, p-JNK, p-ERK and p-P38, thereby decreasing serine IRS1 phosphorylation, restoring tyrosine IRS1 phosphorylation and insulin sensitivity.

[4] = tested on: extracellular signal-regulated kinase; details: cited from earlier work
[5] = cited from earlier work
[6] = Phase 3 adverse effects; format: in vivo
[7] = Phase 3 trial, metabolic changes and correlations; format: in vivo, human
Method: Subjects metabolic and correlation changes were analyzed. Many of the genes associated with LOAD (late onset Alzheimer's disease) are related to cholesterol metabolism, which is decreased in AD neuron membranes. Insulin and glycemic controls are known to be involved in neurodegeneration. […] Increased mean amplitude of glycemic excursion (MAGE from CGM) increased risk of Alzheimer's disease progression. Leptin is an anti-inflammatory, neuroprotective and is decreased in AD. […] The results are described in Tables 4 and 5.
FIGS. 17A-17C illustrates graphs representing increased fasting insulin and HOMA2-% B with decreased HOMA2-% S w/o hypoglycemia. Table 10 provides additional information regarding the fasting insulin and HOMA2-% B with decreased HOMA2-% S w/o hypoglycemia.

[8] = tested on: ERK- and NF-κB-stimulated inflammatory mediators, including TNF-α; details: without inhibiting their homeostatic functions; cited from earlier work
[9] = Phase 3 imaging sub-study FDG-PET; format: in vivo, human; details: subjects with a baseline whole cortex suvr <1.29; blinded Phase 3 data, NE3107 and placebo pooled
Method: Subjects were analyzed using a fluorodeoxyglucose (FDG)-positron emission tomography (PET) imaging scans. FDG-PET standardized uptake value ratios (“suvr”) were increased in 14/24 subjects with a baseline whole cortex suvr <1.29. […] Cholesterol increases trended with increased Cingulate suvr. The results are described in Table 7 and FIG. 15.

[10] = Phase 3 neuropsychiatric inventory; format: in vivo, human; details: blinded Phase 3 data, NE3107 and placebo pooled
Method: Subjects were analyzed for neuropsychiatric inventory. […] An improvement in appetite was also correlated with decreased Cog12, CDR SB and ADCOMS, with increased Alzheimer's disease. A decrease in anxiety was correlated with an increase ADL and decreased CGIC. Sleep improvement was correlated with a decrease in CGIC and decreased in TNFα. The results are described in Table 8 and FIGS. 16A-16B.

[11] = P < 0.0001, blinded Phase 3 data, NE3107 and placebo pooled
[12] = blinded Phase 3 data, NE3107 and placebo pooled

Compound: C#C[C@]1(O)CC[C@H]2[C@@H]3[C@@H](O)C=C4C[C@@H](O)CC[C@]4(C)[C@H]3CC[C@@]21C [NE3107, 17α-ethynylandrost-5-ene-3β,7β,17β-triol]
- DNA methylation decrease of the top 400 decreased CpGs ([1]; 14 weeks of treatment): > 50%
- decrease in DNAm ([1]; HLA-L): 56%
- decrease in DNAm ([1]; KCNQ1DN): 51%
- decrease in DNAm ([1]; SLC26A1): 55%
- vMRI amygdala volume [2]: increased
- vMRI hippocampus volume [2]: increased
- Akt inhibition of GSK 3beta [3]: increased Akt inhibition of GSK 3beta
- activation of inflammatory p-IKK beta, p-ERK, p-P38 and p-JNK ([3]; in vitro samples): decreased activation
- p-Tau ([3]; in vitro samples): decreased p-Tau
- binding to extracellular signal-regulated kinase [4]: binds
- blood-brain permeability [5]: blood-brain permeable
- subjects discontinued due to a reported AE ([6]; 10 subjects of 439 enrolled, blinded, NE3107 and placebo pooled): 2.3%
- serious AEs ([6]; 12, blinded, NE3107 and placebo pooled): 2.7%
- related AEs ([6]; 43, blinded, NE3107 and placebo pooled): 9.8%
- subjects who experienced 1 or more AEs ([6]; 156 of 439 subjects, blinded, NE3107 and placebo pooled): 35.5%
- serious AEs that resulted in death ([6]; count, not known whether on IP or placebo): 1
- Hypoglycemia ([7]; Increased Fasting Insulin: No, blinded Phase 3 data): 2
- Hypoglycemia ([7]; Increased Fasting Insulin: Yes, blinded Phase 3 data): 0
- HOMA2-% B, Change from Baseline [7, 11]: +13.5%, *
- HOMA2-% S, Change from Baseline [7, 11]: −21.2%, *
- Insulin, Change from Baseline [7, 11]: +1.9 μlU/mL,*
- Cholesterol, Change from Baseline [7, 12]: +3.0 mg/dL
- Leptin, V10 median [7, 12]: 29.2 ng/mL
- Leptin DNAm ([7]; in vivo): increase
- MAGE, Change from Baseline ([7]; mean amplitude of glycemic excursion from CGM, blinded Phase 3 data, NE3107 and placebo pooled): -0.57 mg/dL
- Hypoglycemia ([7]; with increased insulin and HOMA2-% B and decreased HOMA2% insulin sensitivity, blinded Phase 3 data): no cases of hypoglycemia
- inhibition of inflammation-driven ERK- and NF-κB-stimulated inflammatory mediators, including TNF-α [8]: selectively inhibit
- subjects with increased FDG-PET standardized uptake value ratios (suvr) [9]: 14/24
- neuropsychiatric inventory, overall improvement in sleep ([10]; p<0.0001): −1.0
- neuropsychiatric inventory, overall improvement in appetite ([10]; p<0.023): −1.0
